For 16 compounds, MIC and inhibition results are on record in ChEMBL document CHEMBL1806424, “The novel 3,4-dihydropyrimidin-2(1H)-one urea derivatives of N-aryl urea: synthesis, anti-inflammatory, antibacterial and antifungal activity evaluation” (2011).

Structures are written as SMILES. ≈ marks a conversion by molar mass, not a printed value.

Broadly, the MIC is the least concentration at which growth counts as inhibited. A lower MIC goes with inhibition by little substance. The term inhibition denotes the drop in the measured response relative to a control, in per cent.

The test system of one test is Bacillus subtilis. The experiment in a line: Antibacterial activity against Bacillus subtilis. The test is classed as functional.
The test system of a further test is Staphylococcus aureus. Kind of test: Antibacterial activity against Staphylococcus aureus. Format: functional.
In the next test the test system is Aspergillus niger. Kind of test: Antifungal activity against Aspergillus niger. The test is classed as functional.
For the next test, the system named is Salmonella typhimurium. Kind of test: Antibacterial activity against Salmonella Typhimurium. Format: functional, Salmonella enterica subsp. enterica serovar Typhimurium. The settings on record: Salmonella enterica.
The next test deals with Candida albicans. The experiment in a line: Antifungal activity against Candida albicans. The test is classed as functional.
The next test concerns Fusarium solani. The experiment in a line: Antifungal activity against Fusarium solani. Format: functional.
The subject of test [1] is THP-1. The experiment in a line: Antiinflammatory activity in human THP1 cells assessed as inhibition of LPS-induced IL6 production at 10 uM treated 30 mins before LPS challenge measured after 24 hrs by ELISA. Format: functional. A general note: ELISA stands for enzyme-linked immunosorbent assay.
The subject of the next test is Escherichia coli. The experiment in a line: Antibacterial activity against Escherichia coli. The test is classed as functional.
Test [2] concerns THP-1. The experiment in a line: Antiinflammatory activity in human THP1 cells assessed as inhibition of LPS-induced TNFalpha production at 10 uM treated 30 mins before LPS challenge measured after 24 hrs by ELISA. The test is classed as functional.
For the next test, the system named is Aspergillus flavus. The experiment in a line: Antifungal activity against Aspergillus flavus. The test is classed as functional.

In the case of `CCOC(=O)C1=C(C)NC(=S)NC1c1ccc(NC(=O)Nc2c(F)cccc2Cl)cc1` (configuration not stated), the MIC was 55 µg/mL (≈ 119 µM) against Bacillus subtilis; 65 µg/mL (≈ 140 µM) in the test on Staphylococcus aureus; 60 µg/mL (≈ 130 µM) in the test with Aspergillus niger; 85 µg/mL (≈ 184 µM) in the test with Salmonella typhimurium; 40 µg/mL (≈ 86.4 µM) in the test on Candida albicans; 80 µg/mL (≈ 173 µM) in the test with Fusarium solani. In addition, the MIC with Escherichia coli is 85 µg/mL (≈ 184 µM); with Aspergillus flavus it was 90 µg/mL (≈ 194 µM). Moreover, the figures for the inhibition at 10 µM with THP-1 [1] and with THP-1 [2] were 36% and 0%, respectively.

On to `CCOC(=O)C1=C(C)NC(=S)NC1c1ccc(NC(=O)Nc2ccc(C(F)(F)F)cc2Cl)cc1` (configuration not stated), for which the MIC in the test on Bacillus subtilis was 35 µg/mL (≈ 68.2 µM); with Staphylococcus aureus it was 35 µg/mL (≈ 68.2 µM); against Aspergillus niger it was 40 µg/mL (≈ 78 µM); against Salmonella typhimurium, 55 µg/mL (≈ 107 µM); with Candida albicans, 35 µg/mL (≈ 68.2 µM); in the test with Fusarium solani, 60 µg/mL (≈ 117 µM). The MIC was 25 µg/mL (≈ 48.7 µM) against Escherichia coli and 35 µg/mL (≈ 68.2 µM) in the test on Aspergillus flavus. Also, the inhibition at 10 µM with THP-1 [1] came out at 73%; in the test on THP-1 [2], 16%.

With `CCOC(=O)C1=C(C)NC(=S)NC1c1ccc(NC(=O)Nc2ccccc2Oc2ccccc2)cc1` (configuration not stated), the MIC turned out to be 55 µg/mL (≈ 109 µM) in the test on Bacillus subtilis; 40 µg/mL (≈ 79.6 µM) in the test on Staphylococcus aureus; 60 µg/mL (≈ 119 µM) in the test with Aspergillus niger; 40 µg/mL (≈ 79.6 µM) with Salmonella typhimurium; 40 µg/mL (≈ 79.6 µM) against Candida albicans; 30 µg/mL (≈ 59.7 µM) against Fusarium solani. Moreover, the MIC is 35 µg/mL (≈ 69.6 µM) against Escherichia coli and 30 µg/mL (≈ 59.7 µM) in the test on Aspergillus flavus. Further, the inhibition at 10 µM was determined as 36% with THP-1 [1] and 0% with THP-1 [2].

As to `CCOC(=O)C1=C(C)NC(=S)NC1c1ccc(NC(=O)Nc2ccccc2C(F)(F)F)cc1` (configuration not stated), the MIC in the test on Bacillus subtilis amounted to 25 µg/mL (≈ 52.2 µM); with Staphylococcus aureus, 25 µg/mL (≈ 52.2 µM); against Aspergillus niger, 40 µg/mL (≈ 83.6 µM); against Salmonella typhimurium it was 30 µg/mL (≈ 62.7 µM); against Candida albicans, 25 µg/mL (≈ 52.2 µM); in the test on Fusarium solani, 30 µg/mL (≈ 62.7 µM). In addition, the MIC in the test on Escherichia coli was 15 µg/mL (≈ 31.3 µM); against Aspergillus flavus, 30 µg/mL (≈ 62.7 µM). Also, the inhibition at 10 µM with THP-1 [1] came out at 27%; in the test with THP-1 [2], 10%.

As to `O=C(O)c1cn(C2CC2)c2cc(N3CCNCC3)c(F)cc2c1=O` [CIPROFLOXACIN], the MIC was 25 µg/mL (≈ 75.4 µM) in the test with Bacillus subtilis, 25 µg/mL (≈ 75.4 µM) in the test on Salmonella typhimurium and 15 µg/mL (≈ 45.3 µM) in the test on Escherichia coli.

As to `CCOC(=O)C1=C(C)NC(=S)NC1c1ccc(NC(=O)Nc2ccccc2OC(F)(F)F)cc1` (configuration not stated), the MIC came out at 30 µg/mL (≈ 60.7 µM) against Bacillus subtilis; 30 µg/mL (≈ 60.7 µM) in the test on Staphylococcus aureus; 20 µg/mL (≈ 40.4 µM) against Aspergillus niger; 20 µg/mL (≈ 40.4 µM) with Salmonella typhimurium; 15 µg/mL (≈ 30.3 µM) in the test on Candida albicans; 15 µg/mL (≈ 30.3 µM) against Fusarium solani. The MIC in the test on Escherichia coli is 25 µg/mL (≈ 50.6 µM); in the test with Aspergillus flavus, 15 µg/mL (≈ 30.3 µM). Besides, the inhibition at 10 µM in the test with THP-1 [1] was determined as 60%; with THP-1 [2] it was 20%.

Turning to `CCOC(=O)C1=C(C)NC(=S)NC1c1ccc(NC(=O)Nc2ccc(OC)cc2)cc1` (configuration not stated), the MIC was 20 µg/mL (≈ 45.4 µM) in the test with Bacillus subtilis; 15 µg/mL (≈ 34.1 µM) against Staphylococcus aureus; 25 µg/mL (≈ 56.8 µM) in the test with Aspergillus niger; 45 µg/mL (≈ 102 µM) with Salmonella typhimurium; 10 µg/mL (≈ 22.7 µM) against Candida albicans; 30 µg/mL (≈ 68.1 µM) against Fusarium solani. In addition, the MIC in the test with Escherichia coli worked out at 15 µg/mL (≈ 34.1 µM); in the test on Aspergillus flavus, 30 µg/mL (≈ 68.1 µM). Moreover, the inhibition at 10 µM in the test on THP-1 [1] came to 42%; in the test with THP-1 [2], 0%.

`Clc1ccc(COC(Cn2ccnc2)c2ccc(Cl)cc2Cl)c(Cl)c1` (configuration not stated) [MICONAZOLE]: the MIC against Aspergillus niger came to 20 µg/mL (≈ 48.1 µM); against Candida albicans, 25 µg/mL (≈ 60.1 µM); against Fusarium solani, 15 µg/mL (≈ 36 µM); against Aspergillus flavus, 20 µg/mL (≈ 48.1 µM).

For `CCOC(=O)C1=C(C)NC(=S)NC1c1ccc(NC(=O)Nc2cc(C(F)(F)F)ccc2Cl)cc1` (configuration not stated), the minimum inhibitory concentration (MIC) in the test with Bacillus subtilis was determined as 85 µg/mL (≈ 166 µM); against Staphylococcus aureus, 55 µg/mL (≈ 107 µM); in the test on Aspergillus niger, 80 µg/mL (≈ 156 µM); against Salmonella typhimurium, 90 µg/mL (≈ 175 µM); in the test on Candida albicans it was 60 µg/mL (≈ 117 µM); in the test with Fusarium solani it was 85 µg/mL (≈ 166 µM). The MIC came to 80 µg/mL (≈ 156 µM) against Escherichia coli and 90 µg/mL (≈ 175 µM) with Aspergillus flavus. The figures for the inhibition at 10 µM with THP-1 [1] and in the test with THP-1 [2] were 92% and 68%, respectively.

Regarding `CCOC(=O)C1=C(C)NC(=S)NC1c1ccc(NC(=O)Nc2c(C)cccc2Cl)cc1` (configuration not stated), the MIC was found to be 65 µg/mL (≈ 142 µM) in the test with Bacillus subtilis; 40 µg/mL (≈ 87.2 µM) against Staphylococcus aureus; 55 µg/mL (≈ 120 µM) against Aspergillus niger; 80 µg/mL (≈ 174 µM) against Salmonella typhimurium; 40 µg/mL (≈ 87.2 µM) with Candida albicans; 40 µg/mL (≈ 87.2 µM) in the test with Fusarium solani. For the same compound, the figures for the minimum inhibitory concentration (MIC) in the test with Escherichia coli and in the test with Aspergillus flavus were 55 µg/mL (≈ 120 µM) and 40 µg/mL (≈ 87.2 µM), respectively. The values for the inhibition at 10 µM in the test with THP-1 [1] and in the test on THP-1 [2] were 11% and 2%, respectively.

Consider `CCOC(=O)C1=C(C)NC(=S)NC1c1ccc(NC(=O)Nc2cccc(C(F)(F)F)c2)cc1` (configuration not stated), for which the MIC against Bacillus subtilis amounted to 55 µg/mL (≈ 115 µM); against Staphylococcus aureus, 40 µg/mL (≈ 83.6 µM); against Aspergillus niger, 20 µg/mL (≈ 41.8 µM); in the test on Salmonella typhimurium, 40 µg/mL (≈ 83.6 µM); in the test on Candida albicans, 25 µg/mL (≈ 52.2 µM); in the test with Fusarium solani, 15 µg/mL (≈ 31.3 µM). Moreover, the minimum inhibitory concentration (MIC) against Escherichia coli amounted to 20 µg/mL (≈ 41.8 µM); in the test on Aspergillus flavus it was 15 µg/mL (≈ 31.3 µM). Also, the inhibition at 10 µM was determined as 11% in the test on THP-1 [1] and 0% in the test with THP-1 [2].

On to `CCOC(=O)C1=C(C)NC(=S)NC1c1ccc(NC(=O)Nc2ccc(C(F)(F)F)cc2)cc1` (configuration not stated), for which the MIC in the test on Bacillus subtilis worked out at 25 µg/mL (≈ 52.2 µM); in the test with Staphylococcus aureus, 20 µg/mL (≈ 41.8 µM); against Aspergillus niger it was 15 µg/mL (≈ 31.3 µM); with Salmonella typhimurium it was 30 µg/mL (≈ 62.7 µM); against Candida albicans it was 15 µg/mL (≈ 31.3 µM); in the test with Fusarium solani, 10 µg/mL (≈ 20.9 µM). Moreover, the MIC came out at 10 µg/mL (≈ 20.9 µM) in the test with Escherichia coli and 25 µg/mL (≈ 52.2 µM) in the test on Aspergillus flavus. The inhibition at 10 µM in the test on THP-1 [1] was 55%; with THP-1 [2], 3%.

In the case of `CCOC(=O)C1=C(C)NC(=S)NC1c1ccc(N)cc1` (configuration not stated), the MIC is 55 µg/mL (≈ 189 µM) with Bacillus subtilis; 40 µg/mL (≈ 137 µM) with Staphylococcus aureus; 40 µg/mL (≈ 137 µM) against Aspergillus niger; 60 µg/mL (≈ 206 µM) in the test with Salmonella typhimurium; 55 µg/mL (≈ 189 µM) against Candida albicans; 45 µg/mL (≈ 154 µM) against Fusarium solani. Moreover, the MIC in the test on Escherichia coli came to 40 µg/mL (≈ 137 µM); against Aspergillus flavus, 60 µg/mL (≈ 206 µM). Further, the inhibition at 10 µM in the test on THP-1 [1] was 3%; in the test on THP-1 [2], 0%.

With `CCOC(=O)C1=C(C)NC(=S)NC1c1ccc(NC(=O)Nc2c(F)cccc2C(F)(F)F)cc1` (configuration not stated), the MIC against Bacillus subtilis was 40 µg/mL (≈ 80.6 µM); with Staphylococcus aureus, 55 µg/mL (≈ 111 µM); in the test with Aspergillus niger, 30 µg/mL (≈ 60.4 µM); against Salmonella typhimurium, 60 µg/mL (≈ 121 µM); in the test with Candida albicans, 55 µg/mL (≈ 111 µM); in the test with Fusarium solani it was 60 µg/mL (≈ 121 µM). Besides, the MIC against Escherichia coli came to 40 µg/mL (≈ 80.6 µM); with Aspergillus flavus, 60 µg/mL (≈ 121 µM). Also, the inhibition at 10 µM with THP-1 [1] came out at 27%; with THP-1 [2], 0%.

Consider `CCOC(=O)C1=C(C)NC(=S)NC1c1ccc(NC(=O)Nc2ccc(C(C)C)cc2)cc1` (configuration not stated), for which the MIC in the test with Bacillus subtilis was determined as 85 µg/mL (≈ 188 µM); against Staphylococcus aureus, 85 µg/mL (≈ 188 µM); in the test on Aspergillus niger, 90 µg/mL (≈ 199 µM); with Salmonella typhimurium, 95 µg/mL (≈ 210 µM); against Candida albicans, 90 µg/mL (≈ 199 µM); with Fusarium solani, 80 µg/mL (≈ 177 µM). Moreover, the MIC against Escherichia coli came out at 55 µg/mL (≈ 122 µM); with Aspergillus flavus, 95 µg/mL (≈ 210 µM). Moreover, the inhibition at 10 µM with THP-1 [1] amounted to 65%; in the test with THP-1 [2], 30%.

For the compound `CCOC(=O)C1=C(C)NC(=S)NC1c1ccc([N+](=O)[O-])cc1` (configuration not stated), the MIC in the test with Bacillus subtilis came out at 45 µg/mL (≈ 140 µM); against Staphylococcus aureus, 35 µg/mL (≈ 109 µM); against Aspergillus niger it was 50 µg/mL (≈ 156 µM); against Salmonella typhimurium, 50 µg/mL (≈ 156 µM); against Candida albicans it was 30 µg/mL (≈ 93.4 µM); in the test on Fusarium solani it was 60 µg/mL (≈ 187 µM). Moreover, the MIC with Escherichia coli was found to be 30 µg/mL (≈ 93.4 µM); against Aspergillus flavus, 60 µg/mL (≈ 187 µM). Besides, the inhibition at 10 µM with THP-1 [1] stood at 8%; in the test on THP-1 [2], 0%.
